US20250090564A1, “BIOACTIVES AND THEIR USES” (AREPA IP LIMITED, priority 2022, published 2025)
Like-named read-outs stand apart in the source and are kept apart here.

Columns and labels:
[1] = in vivo; cited from earlier work
MAO-A and B = details: irreversible, non-selective inhibitor; cited from earlier work
MAO-A [2] = target: T1, MAO-A (Homo sapiens, UniProt P21397); experiment: MAO-Glo assay kit, MAO-A; format: biochemical; details: dose response curve, 1 h room temperature
T1 sequence (P21397 1-527): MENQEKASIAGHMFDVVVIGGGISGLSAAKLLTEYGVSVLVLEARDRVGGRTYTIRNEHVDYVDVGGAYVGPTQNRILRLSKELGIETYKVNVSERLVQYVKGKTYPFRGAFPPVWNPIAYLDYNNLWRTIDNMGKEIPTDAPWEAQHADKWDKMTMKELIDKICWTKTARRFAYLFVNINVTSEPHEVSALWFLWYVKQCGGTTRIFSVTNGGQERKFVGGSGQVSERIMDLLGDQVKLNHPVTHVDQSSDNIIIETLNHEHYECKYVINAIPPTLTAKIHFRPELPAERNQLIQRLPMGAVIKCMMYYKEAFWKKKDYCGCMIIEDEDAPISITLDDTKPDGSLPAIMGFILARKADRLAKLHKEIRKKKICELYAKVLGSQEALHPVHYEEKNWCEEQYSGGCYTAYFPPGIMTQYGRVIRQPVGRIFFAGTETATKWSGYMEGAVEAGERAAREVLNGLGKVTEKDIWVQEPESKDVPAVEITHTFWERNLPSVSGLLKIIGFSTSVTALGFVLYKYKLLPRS
Method: (§1) Synthetic sarmentosin (BOC Sciences; Cat. No. B2703-149954) was diluted in PBS for the MAO inhibition assays. […] Briefly, samples were combined with the kit's luminogenic MAO substrate solution and human enzyme (MAO-A or MAO-B at a final concentration of 20 μg/mL) and incubated at room temperature for 1 h. Following incubation, the luciferin detection reagent were added to each sample and the change in luminescence was measured at room temperature over 40 min in a FLUOstar Omega plate reader (BMG FluoStar Optima, Alphatech Systems, Auckland, New Zealand). […] All samples were analysed in triplicate on each plate.

human enzyme MAO-B = target: T2, human enzyme MAO-B (Homo sapiens, UniProt P27338); experiment: MAO-Glo assay kit, MAO-B; format: biochemical; details: highest concentration tested
T2 sequence (P27338 1-520): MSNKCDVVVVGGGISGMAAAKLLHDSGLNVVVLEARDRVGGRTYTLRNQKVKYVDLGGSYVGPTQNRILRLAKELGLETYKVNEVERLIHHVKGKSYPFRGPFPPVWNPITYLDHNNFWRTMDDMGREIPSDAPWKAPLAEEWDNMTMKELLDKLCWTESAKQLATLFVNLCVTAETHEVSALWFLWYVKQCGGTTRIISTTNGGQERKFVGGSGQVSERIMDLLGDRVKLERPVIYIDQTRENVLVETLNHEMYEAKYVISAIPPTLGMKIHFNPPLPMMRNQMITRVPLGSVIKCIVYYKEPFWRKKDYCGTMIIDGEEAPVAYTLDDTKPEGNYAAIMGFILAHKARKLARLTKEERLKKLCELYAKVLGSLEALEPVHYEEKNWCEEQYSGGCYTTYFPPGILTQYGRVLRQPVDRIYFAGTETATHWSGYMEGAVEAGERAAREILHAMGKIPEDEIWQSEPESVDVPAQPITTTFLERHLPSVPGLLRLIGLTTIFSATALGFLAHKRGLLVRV
Method: as §1

[3] = human, in vivo
Method: Plasma was separated from whole blood collected in lithium heparin tubes from participants by centrifugation at 4000×g for 10 min at 4° C. Plasma (1 mL) was spiked with 30 μL of 50% formic acid and 100 µL of 10 mmol ascorbic acid then stored at −80° C. prior to shipping on dry ice to the Physiological Chemistry laboratory.
The plasma samples (350 μL) were spiked with malvidin 3-O-galactoside and further acidified with phosphoric acid prior to clean up on a SOLAμ™ Solid Phase Extraction plate. Following washing with water and acetic acid, the retained anthocyanins were eluted with methanol: formic acid (95:5), evaporated to dryness then reconstituted in acetonitrile: formic acid: water (5:3:92) prior to analysis by Liquid Chromatography-Mass Spectrometry (LC-MS). Quantifications of individual and total anthocyanins were performed using the internal standard ratio method using MultiQuant software, and all results are reported as cyanidin 3-O-glucoside equivalents. Quantification of sarmentosin was performed using an external reference standard supplied by Stephen Bloor (Callaghan Institute).

[4] = In vitro digestion of blackcurrant juice concentrate (pepsin/acid, bile salts/pancreatin), LCMS; format: in vitro ADME
Method: Samples were taken at the end of 1st step and at 30 min intervals in the 2nd step to give 6 samples for analysis. The samples will be examined (LCMS) for the level of sarmentosin and sarmentosin esters and compared with the feed material. The two samples were treated as shown below in Table 17 to replicate digestion. [table] Samples taken from the subsequent treatments were stored frozen until required for analysis. The samples were all a similar volume and concentration of original juice. Analysis was performed using LCMS (method described in the earlier work). Samples were prepared in two ways, 1. addition of methanol to precipitate any protein or 2. Direct sampling of neat solution after centrifugation.

platelet MAO-B = target: T3, platelet MAO-B (Homo sapiens, UniProt P27338); experiment: Acute sarmentosin pilot study, platelet MAO-B activity (Example 10); format: in vivo; details: for platelet MAO-B activity compared with baseline (0 h): 2 h after consumption; for platelet MAO-B activity compared with baseline: 4 h after consumption
T3 construct: platelets were isolated from whole blood; from tissue; host or cells: platelets isolated from venous blood of human participants
T3 sequence (P27338 1-520): T2 sequence (P27338 1-520)
Method: To determine the efficacy of sarmentosin in temporally inhibiting platelet MAO-B activity, we conducted a randomized, placebo-controlled crossover study. Human participants completed three treatment conditions (placebo, 42 mg sarmentosin, and 84 mg sarmentosin), with each trial day separated by at least 48 h.
Five healthy male adults aged between 25 and 36 years old were enrolled in this study. Participants were randomly allocated one of the three trial treatment beverages. All participants completed all three treatment arms of the study, and data from all participants were included in the study analysis. Enrolled participants were required to take part in three trial days where they consumed their allocated sarmentosin beverages or the placebo. Participants adhered to the same dietary restrictions and consumed the same standardized breakfast as previously described in the intervention study. A venous blood sample was collected at the beginning of each trial day, and then, participants were given their treatment beverage to consume immediately. […] Water was provided ad libitum during the trial day, and participants were seated in the clinical trial facility between venous blood collection time points.
Blackcurrant juice previously confirmed to contain sarmentosin was diluted 1:1 with RO-purified H2O and slowly applied to a column (10 cm diameter×125 cm height) filled with Diaion HP20 resin (Mitsubishi Chemical Industries, Japan). The eluant was collected until it was determined that most of sarmentosin had eluted and was quantified as described previously. Sarmentosin fractions were combined and concentrated using a rotary evaporator, and the resulting sarmentosin-rich fraction was then sterile filtered (Millipore Stericup (0.22 μM), Sigma-Aldrich).
Participants consumed a 250 mL beverage containing 42 and 84 mg total sarmentosin, similar to that present in one and two servings, respectively, of a commercial BC juice (Arepa Performance). Sucrose, BC flavouring, and coloring were added to the beverages to blind for taste and appearance. The placebo beverage was matched for sucrose, contained the same volume of added BC flavouring and coloring produced by Sensient Technologies (Auckland, New Zealand) as the sarmentosin beverages, and diluted to 250 mL to match for sweetness, appearance, and flavor.

MAO-B = target: T4, MAO-B (Sus scrofa, UniProt Q6PLK3); experiment: S9 porcine liver microsome fraction assay, kynuramine to 4HQ by LCMS; details: qualitative statement
T4 sequence (Q6PLK3 2-520): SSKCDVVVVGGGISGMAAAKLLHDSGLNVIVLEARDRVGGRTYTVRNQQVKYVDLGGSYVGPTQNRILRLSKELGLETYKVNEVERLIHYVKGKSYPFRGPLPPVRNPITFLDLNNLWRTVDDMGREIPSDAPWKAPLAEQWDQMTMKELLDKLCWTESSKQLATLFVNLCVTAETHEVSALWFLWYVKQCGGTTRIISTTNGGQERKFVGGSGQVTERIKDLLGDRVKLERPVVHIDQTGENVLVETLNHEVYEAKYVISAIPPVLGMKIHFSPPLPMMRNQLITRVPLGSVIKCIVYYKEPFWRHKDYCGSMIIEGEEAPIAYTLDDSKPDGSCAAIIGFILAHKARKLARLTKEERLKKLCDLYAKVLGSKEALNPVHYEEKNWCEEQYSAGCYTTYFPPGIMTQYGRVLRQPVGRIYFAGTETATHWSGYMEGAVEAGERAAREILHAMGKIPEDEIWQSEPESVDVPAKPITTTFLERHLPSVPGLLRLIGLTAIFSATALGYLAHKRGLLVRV
Method: We used a porcine S9 liver microsome fraction as the source of the MAO-A and MAO-B enzymes.
The S9 porcine fraction was mixed with a specific MAO substrate (kynuramine) and mixed with the test sample and buffer. After 1 hr at 37° C. the reaction was halted by cooling and addition of 2N NaOH and acetonitrile. The centrifuged sample was then analysed using LCMS and the level of 4-quinolol (4HQ) product measured.
Samples were prepared in a 6-well plate (deep well format with 1.1 ml strip tubes). The assay was performed by diluting the crude S9 fraction with buffer (PBS, PH 7.4, diluted 1 in 5, 150 μl) and adding the test sample dissolved in buffer (75 ul). An aliquot of kynuramine was added (10 ul of 1 mg/ml) and the plate was placed in a 37 C water bath for 1 hr. The plate was cooled in ice water before addition of 20 ul 2N NaOH followed by 250 μl acetonitrile. The individual strip tubes were centrifuged, and samples taken from each for LCMS analysis.
The LCMS analysis was performed using a Cyano HPLC column eluted with 0.1% formic in water and acetonitrile. The LC run was isocratic mode (40% Acetonitrile) and the relative levels of 4 hydroxy quinoline (4HQ) and kynuramine determined from peak areas. […] Kynuramine is converted to 4HQ by the MAO-B enzyme.
Various juice samples, concentrates, powders and whole fruit were tested. […]

MAO-A [5] = target: T1, MAO-A; design: purchased Sigma-Aldrich MAK295/296; details: reversible inhibitor; cited from earlier work

Question: For O=C(NCCN1CCOCC1)c1ccc(Cl)cc1 [Moclobemide], which “time to reach peak concentrations” value [1] is on record?
Answer: The value was “approximately 1 hours”.

Question: With NNCCc1ccccc1 [Phenelzine] as the molecule, how does the “duration of inhibition of MAO-A and B” value (MAO-A and B) read?
Answer: Its value is “up to three”.

Question: What does the source list for N#C/C(=C\CO[C@@H]1O[C@H](CO)[C@@H](O)[C@H](O)[C@H]1O)CO [sarmentosin, 4-(beta-D-glucopyranosyloxy)-2-(hydroxymethyl-2-butenenitrile)]?
Answer: IC50 (MAO-A [2]): 3.55 µM; inhibition at 250 µM (human enzyme MAO-B): 32%; time of peak concentrations of sarmentosin in plasma [3]: 120 min; concentration after in vitro digestion steps [4]: increase; effect of final heating step (90 C. for 10 min) after digestion [4]: some degradation; platelet MAO-B activity compared with baseline (0 h) (platelet MAO-B; 42 mg sarmentosin): similarly inhibited platelet MAO-B activity; platelet MAO-B activity compared with baseline (platelet MAO-B; 42 mg sarmentosin): MAO-B activity comparable to baseline; platelet MAO-B activity compared with baseline (0 h) (platelet MAO-B; 84 mg sarmentosin): similarly inhibited platelet MAO-B activity; platelet MAO-B activity compared with baseline (platelet MAO-B; 84 mg sarmentosin): MAO-B activity comparable to baseline; MAO inhibition activity in S9-LCMS bioassay (level of 4HQ) (MAO-B): the same activity

Question: Which “duration of MAO-A inhibition before activity returns to baseline” value (MAO-A [5]) does the source give for Cc1cccc(N2CC(CO)OC2=O)c1 (centres unmarked) [toloxatone] here?
Answer: The value was “six”.

Question: With nigrumin-p-coumarate as the molecule, how does the “concentration after in vitro digestion steps” value ([4]; esters: steps 3 through 5, sarmentosin: steps 3 and 4, FIGS. 32 and 33) read?
Answer: Its value is “decrease”.
